Results taken from ChEMBL document CHEMBL2311313, “Inhibitors of HIV-1 attachment. Part 11: the discovery and structure-activity relationships associated with 4,6-diazaindole cores” (Bioorg Med Chem Lett, 2013).
Converted amounts (≈) assume the structure as drawn.

Assays:
[1] = tested on: Human immunodeficiency virus 1; assay: Antiviral activity against HIV1 JRFL infected in human HeLa cells expressing CD4 and CCR5 after 3 days by luciferase reporter gene assay; type: functional, organism-based; details: Human immunodeficiency virus 1, JRFL, 72 h
[2] = Solubility of the compound in amorphous form at pH 6.5; type: physicochemical; details: buffer
[3] = Cytotoxicity against human HeLa cells expressing CD4 and CCR5 assessed as cell viability after 6 days by XTT assay; type: cell-based
[4] = Therapeutic index, ratio of CC50 for human HeLa cells expressing CD4 and CCR5 to EC50 for HIV1 JRFL infected in human HeLa cells expressing CD4 and CCR5; type: cell-based; details: read-out: Ratio CC50/EC50
[5] = Oral bioavailability in rat at 5 mg/kg; type: ADME, organism-based; details: in vivo
[6] = Clearance in rat at 1 mg/kg, iv; type: ADME, organism-based; parameters: dose 1 mg/kg, route intravenous; details: in vivo
[7] = AUC in rat at 5 mg/kg, po; type: ADME, organism-based; parameters: dose 5 mg/kg, route oral; details: plasma

Compound | EC50 [1] | CC50 at 144 h [3] | also measured
N#Cc1ncnc2c(C(=O)C(=O)N3CCN(C(=O)c4ccccc4)CC3)c[nH]c12 | 44 nM | > 300000 nM | –
CC(=O)c1ncnc2c(C(=O)C(=O)N3CCN(C(=O)c4ccccc4)CC3)c[nH]c12 | 18 nM | > 300000 nM | –
O=C(C(=O)N1CCN(C(=O)c2ccccc2)CC1)c1c[nH]c2c(-c3cccnc3)ncnc12 | 1.3 nM | > 300000 nM | –
O=C(C(=O)N1CCN(C(=O)c2ccccc2)CC1)c1c[nH]c2c(-c3ccncc3)ncnc12 | 12 nM | > 300000 nM | –
O=C(C(=O)N1CCN(C(=O)c2ccccc2)CC1)c1c[nH]c2c(-c3ccnnc3)ncnc12 | 5.2 nM | > 300000 nM | –
O=C(C(=O)N1CCN(C(=O)c2ccccc2)CC1)c1c[nH]c2c(-c3cc[nH]n3)ncnc12 | 0.31 nM | > 300000 nM | –
Cc1cc(-c2ncnc3c(C(=O)C(=O)N4CCN(C(=O)c5ccccc5)CC4)c[nH]c23)on1 | 0.88 nM | 177000 nM | –
CN1CCN(c2ncnc3c(C(=O)C(=O)N4CCN(C(=O)c5ccccc5)CC4)c[nH]c23)CC1 | > 5000 nM | > 300000 nM | –
Cc1ccn(-c2ncnc3c(C(=O)C(=O)N4CCN(C(=O)c5ccccc5)CC4)c[nH]c23)n1 | 0.15 nM | > 300000 nM | bioavailability [5]: 45%; clearance [6]: 4.8 mL/min/kg; solubility [2]: 8 µg/mL (≈ 18 µM); AUC [7]: 17.8 µM·h
O=C(O)c1ccn(-c2ncnc3c(C(=O)C(=O)N4CCN(C(=O)c5ccccc5)CC4)c[nH]c23)n1 | 0.76 nM | – | solubility [2]: 1070 µg/mL (≈ 2260 µM)
CN(C)C(=O)c1ccn(-c2ncnc3c(C(=O)C(=O)N4CCN(C(=O)c5ccccc5)CC4)c[nH]c23)n1 | 2 nM | – | –
O=C(C(=O)N1CCN(C(=O)c2ccccc2)CC1)c1c[nH]c2c(-n3ccc(-c4ccc(F)cc4)n3)ncnc12 | < 0.16 nM | – | –
COc1ncnc2c(C(=O)C(=O)N3CCN(C(=O)c4ccccc4)CC3)c[nH]c12 | 4.1 nM | > 300000 nM | –
CCOc1ncnc2c(C(=O)C(=O)N3CCN(C(=O)c4ccccc4)CC3)c[nH]c12 | 12 nM | > 150000 nM | –
O=C(C(=O)N1CCN(C(=O)c2ccccc2)CC1)c1c[nH]c2c(Cl)ncnc12 | 11 nM | > 300000 nM | –
COc1ccc(-c2ccn(-c3ncnc4c(C(=O)C(=O)N5CCN(C(=O)c6ccccc6)CC5)c[nH]c34)n2)cc1 | 0.24 nM | – | solubility [2]: 1 µg/mL (≈ 1.87 µM)
COc1ccccc1-c1ccn(-c2ncnc3c(C(=O)C(=O)N4CCN(C(=O)c5ccccc5)CC4)c[nH]c23)n1 | 0.36 nM | – | solubility [2]: 4 µg/mL (≈ 7.47 µM)
O=C(C(=O)N1CCN(C(=O)c2ccccc2)CC1)c1c[nH]c2c(-n3ccc(-c4cccc(C(F)(F)F)c4)n3)ncnc12 | 0.37 nM | – | solubility [2]: 60 µg/mL (≈ 105 µM)

Continued, in another order:

EC50 [1] | Compound | CC50 at 144 h [3] | also measured
0.15 nM | O=C(C(=O)N1CCN(C(=O)c2ccccc2)CC1)c1c[nH]c2c(-n3ccc(-c4ccccn4)n3)ncnc12 | – | solubility [2]: 8 µg/mL (≈ 15.8 µM)
0.34 nM | O=C(C(=O)N1CCN(C(=O)c2ccccc2)CC1)c1c[nH]c2c(-c3ccccn3)ncnc12 | 6000 nM | selectivity ratio [4]: > 15000
0.25 nM | O=C(C(=O)N1CCN(C(=O)c2ccccc2)CC1)c1c[nH]c2c(-c3cnccn3)ncnc12 | 78000 nM | selectivity ratio [4]: > 15000
2.7 nM | O=C(C(=O)N1CCN(C(=O)c2ccccc2)CC1)c1c[nH]c2c(-c3cncnc3)ncnc12 | > 300000 nM | –
11 nM | O=C(C(=O)N1CCN(C(=O)c2ccccc2)CC1)c1c[nH]c2c(-n3nccn3)ncnc12 | > 150000 nM | –
0.1 nM | O=C(C(=O)N1CCN(C(=O)c2ccccc2)CC1)c1c[nH]c2c(-n3cncn3)ncnc12 | > 300000 nM | bioavailability [5]: 15%; clearance [6]: 35 mL/min/kg; AUC [7]: 0.83 µM·h
0.36 nM | Cc1ncn(-c2ncnc3c(C(=O)C(=O)N4CCN(C(=O)c5ccccc5)CC4)c[nH]c23)n1 | > 150000 nM | bioavailability [5]: 19%; clearance [6]: 7.6 mL/min/kg; AUC [7]: 4.9 µM·h
1.1 nM | Cc1cnn(-c2ncnc3c(C(=O)C(=O)N4CCN(C(=O)c5ccccc5)CC4)c[nH]c23)c1 | > 300000 nM | –
4.8 nM | CNCCCCNC(=O)c1ccn(-c2ncnc3c(C(=O)C(=O)N4CCN(C(=O)c5ccccc5)CC4)c[nH]c23)n1 | – | solubility [2]: 1730 µg/mL (≈ 3100 µM)
0.28 nM | O=C(C(=O)N1CCN(C(=O)c2ccccc2)CC1)c1c[nH]c2c(-n3ccc(-c4ccccc4)n3)ncnc12 | – | solubility [2]: 1 µg/mL (≈ 1.98 µM)
